Assay results published in patent US7074605B2 (The Curators of the University of Missouri, priority 1997, dated 2006).

The compounds below were run against Clostridium perfringens α-N-acetylgalactosaminidase (Clostridium perfringens, UniProt I1SB20).
Assay type: biochemical

Sequence of Clostridium perfringens α-N-acetylgalactosaminidase (I1SB20 1-629 limits assumed): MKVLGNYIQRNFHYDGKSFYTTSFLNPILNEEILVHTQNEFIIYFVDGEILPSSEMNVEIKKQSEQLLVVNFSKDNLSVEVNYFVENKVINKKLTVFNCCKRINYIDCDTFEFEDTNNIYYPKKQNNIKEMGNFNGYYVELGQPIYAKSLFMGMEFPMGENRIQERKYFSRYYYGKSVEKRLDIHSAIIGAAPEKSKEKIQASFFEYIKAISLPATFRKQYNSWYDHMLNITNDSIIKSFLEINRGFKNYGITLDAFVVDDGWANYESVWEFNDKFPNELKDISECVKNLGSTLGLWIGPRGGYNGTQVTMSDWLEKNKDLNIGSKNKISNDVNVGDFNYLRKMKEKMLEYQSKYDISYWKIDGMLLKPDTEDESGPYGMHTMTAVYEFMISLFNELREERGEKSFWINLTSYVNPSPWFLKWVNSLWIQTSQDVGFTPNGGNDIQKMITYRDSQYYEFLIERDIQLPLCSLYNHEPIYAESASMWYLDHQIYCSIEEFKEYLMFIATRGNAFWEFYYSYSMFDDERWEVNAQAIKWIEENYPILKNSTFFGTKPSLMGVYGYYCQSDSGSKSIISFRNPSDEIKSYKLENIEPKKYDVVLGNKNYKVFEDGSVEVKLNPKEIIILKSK

**Q.** Which Activity does the source give for Cc1cc(=O)oc2cc(O[C@@H]3O[C@H](CO)[C@H](O)[C@H](O)[C@H]3O)ccc12 [4MU-α-D-galactopyranoside] here?
**A.** <0.001 U/ml

**Q.** How did the Activity turn out when C[C@@H]1O[C@@H](Oc2ccc([N+](=O)[O-])cc2)[C@@H](O)[C@H](O)[C@@H]1O [PNP-α-L-fucopyranoside] was run?
**A.** <0.001 U/ml

**Q.** Which Activity does the source give for CC(=O)NC1C(O)CC(Oc2ccc3c(C)cc(=O)oc3c2)(C(=O)O)OC1C(O)C(O)CO (stereo not drawn) [4MU-N-acetyl-α-neuraminic acid] here?
**A.** <0.001 U/ml

**Q.** With CC(=O)N[C@H]1[C@@H](Oc2ccc([N+](=O)[O-])cc2)O[C@H](CO)[C@H](O)[C@@H]1O [PNP-N-acetyl-α-D-galactosaminide] as the compound, how does the Activity read?
**A.** 0.334 U/ml

**Q.** How did the Activity turn out when O=[N+]([O-])c1ccc(O[C@@H]2O[C@H](CO)[C@H](O)[C@H](O)[C@H]2O)cc1 [PNP-β-D-galactopyranoside] was run?
**A.** <0.001 U/ml

**Q.** O=[N+]([O-])c1ccc(O[C@H]2O[C@H](CO)[C@@H](O)[C@H](O)[C@H]2O)cc1 [PNP-α-D-glucopyranoside] was tested. Which Activity did it give?
**A.** <0.001 U/ml

**Q.** How did the Activity turn out when CC(=O)N[C@H]1[C@H](Oc2ccc([N+](=O)[O-])cc2)O[C@H](CO)[C@H](O)[C@@H]1O [PNP-N-acetyl-β-D-galactosaminide] was run?
**A.** <0.001 U/ml

**Q.** CC(=O)N[C@H]1[C@@H](Oc2ccc([N+](=O)[O-])cc2)O[C@H](CO)[C@@H](O)[C@@H]1O [PNP-N-acetyl-α-D-glucosaminide] was tested. Which Activity did it give?
**A.** <0.001 U/ml

**Q.** How did the Activity turn out when O=[N+]([O-])c1ccc(O[C@H]2O[C@H](CO)[C@H](O)[C@H](O)[C@H]2O)cc1 [PNP-α-D-galactopyranoside] was run?
**A.** <0.001 U/ml

**Q.** How did the Activity turn out when CC(=O)N[C@H]1[C@H](Oc2ccc([N+](=O)[O-])cc2)O[C@H](CO)[C@@H](O)[C@@H]1O [PNP-N-acetyl-β-D-glucosaminide] was run?
**A.** <0.001 U/ml

**Q.** With O=[N+]([O-])c1ccc(O[C@@H]2O[C@H](CO)[C@@H](O)[C@H](O)[C@H]2O)cc1 [PNP-β-D-glucopyranoside] as the compound, how does the Activity read?
**A.** <0.001 U/ml

**Q.** For O=[N+]([O-])c1ccc(O[C@@H]2OC[C@H](O)[C@H](O)[C@H]2O)cc1 [PNP-α-L-arabinopyranoside], which Activity is on record?
**A.** <0.001 U/ml

**Q.** How did the Activity turn out when C[C@@H]1O[C@H](Oc2ccc([N+](=O)[O-])cc2)[C@@H](O)[C@H](O)[C@@H]1O [PNP-β-L-fucopyranoside] was run?
**A.** <0.001 U/ml

**Q.** With O=[N+]([O-])c1ccc(O[C@H]2O[C@H](CO)[C@@H](O)[C@H](O)[C@@H]2O)cc1 [PNP-α-D-mannopyranoside] as the compound, how does the Activity read?
**A.** <0.001 U/ml
